Tests used:
in vitro = details: chlorocebus sabaeus
VeroE6 cells = details: uninfected VeroE6 cells, MTS assay; mean ± SD of duplicate experiments
SARS-CoV-2 = experiment: microbe, parasite or virus in culture; assay type: cell-based; details: Severe acute respiratory syndrome coronavirus 2; […]; mean ± SD of duplicate experiments; read-out: Anti-SARS-CoV-2 activity EC50

CCCOc1ccc(-c2cc(OCCN3CCN(Cc4ccccc4)CC3)c3cccc(OC)c3n2)cc1 [Compound 5f]
CC50 (in vitro): > 100 µM
melting point: 95 to 97 °C
VeroE6 cells CC50 (VeroE6 cells): lacked cytotoxicity
EC50 (SARS-CoV-2): 35.9 ± 32.2 µM

Source: article PMC9088073, “Discovery of 2-Phenylquinolines with Broad-Spectrum Anti-coronavirus Activity” (ACS Medicinal Chemistry Letters, 2022)
